Laboratory results: patent US12523663B2, “Use of CD9 as a biomarker and as a biotarget in glomerulonephritis or glomerulosclerosis” (INSERM (INSTITUT NATIONAL DE LA SANTÉ ET DE LA RECHERCHE …, priority 2019, dated 2026)

B1: HB-EGF: growth factor used to stimulate PECs (protein, UniProt Q99075 63-148, looked up)
Heparin-binding EGF-like …: DLQEADLDLLRVTLSSKPQALATPNKEEHGKRKKKGKGLGKKRDPCLRKYKDFCIHGECKYVKELRAPSCICHPGYHGERCHGLSL

How the values were obtained:
Format in all cases: cell-based
PDGFRβ = assay: Western blot of PDGFRβ phosphorylation in PEC; settings: PEC stimulated with PDGF-BB
Experimental: PEC lysates were prepared with RIPA extraction buffer containing phosphatase inhibitors and protease inhibitors (Roche). Equal amounts of proteins were loaded onto sodium dodecyl sulfate-polyacrylamide electrophoresis gels for separation and transferred onto poly(vinylidene difluoride) membranes. The membranes were blocked with milk and probed with different antibodies: rat anti-CD9 (BD Pharminogen, 553758, 1:1000), rabbit anti-phospho-PDGF receptor-β Y1009 (Cell Signaling Technology, 4549; 1:1000), rabbit anti-PDGFRB (Cell Signaling, 3169; 1:1000), rabbit anti-integrin […] (Millipore, 04-1109, 1:1000), rabbit anti-CASP3 (Cell Signaling Technology, 9662; 1:1000), rabbit anti-phospho EGFR Y1068 (Cell Signaling Technology, 2234; 1:1000), rabbit anti EGFR (Cell Signaling Technology, 2232; 1:1000), rabbit anti-phospho-FAK Y397 (Cell Signaling 3283, 1:1000), rabbit anti-FAK (Millipore, 06-543,1:1000). Membranes were then probed with horseradish peroxidase-conjugated secondary antibodies (Cell Signaling Technology, 7074 and 7076; 1:2000; Jackson Immunoresearch, 706-036-148; 1:1000) and bands were visualized by enhanced chemiluminescence (Clarity Western ECL substrate; Bio-Rad, 170-5061). A LAS-4000 imaging system (Fuji, LAS4000, Burlington, N.J., USA) was used to reveal bands and densitometric analysis was used for quantification.

PEC [1] = assay: Proliferation assay (Ki67 staining, flow cytometry); settings: PDGF-BB stimulation
Experimental: To assess cell proliferation, we used the nuclear antigen Ki67 staining. After overnight starvation in ECBM+1% FBS, cells were treated 24 hours with PDGF-BB (10 ng/mL) or HBEGF (20 ng/mL) or corresponding controls. Cells were then trypsinized and washed in cold PBS. Supernatants were kept and included in analysis. After centrifugation, cells were permeabilized with 1 mL of ice-cold ethanol for 2 h at −20° C. Following two washes with FACS buffer (HBSS, 2% FBS and 10 mM HEPES), cells were stained for 30 min at room temperature in the dark with phycoerythrin (PE)-conjugated anti-human Ki67 mAb (clone B56) (BD Pharmingen) and washed. Samples were analyzed on a BD LSRII flow cytometer (BD Bioscience). An isotype control staining with PE mouse IgG1 was performed. Data were analyzed using FlowJo software (FlowJo, LLC).

PEC [2] = assay: Cell migration in IBIDI chambers (scratch assay); settings: scratch assays, growth factor stimulation
Experimental: Unoriented migration assay was performed using IBIDI chambers (Culture-Insert 2 Well in μ-Dish 35 mm, high ibiTreat, n° 81176). After confluence was obtained, PECs were grown in ECBM without supplements with FBS 1% overnight. The insert was then removed creating a gap of 500 μm between cells. A first round of photographs was taken (HO), shortly after cells were stimulated with either ECBM without supplements with FBS 1% (control), or with HB-EGF 10 ng/mL, or with PDGF-BB 10 ng/mL. Photographs were taken every 30 min for 12 h. Areas of migration were measured by automatic quantification on NIS-Elements AR software.

Row | Molecule | PDGFRβ phosphorylation (PDGFRβ) | PEC proliferation (number of KI67+ cells) (PEC [1]) | PEC migration (PEC [2])
1 | PDGF-BB: growth factor used to stimulate PECs | induced a rapid and transient PDGFRβ phosphorylation | induced PEC proliferation | induced PEC migration
2 | B1 |  |  | induced PEC migration
